Source: PubChem BioAssay (NCI)
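In this assay, cells in 96-well plates receive the compound at five concentrations for 48 hours. Endpoints are linearly interpolated between the surrounding concentrations. Definition used: TGI = concentration required for complete inhibition of growth.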

Columns and labels:
Experiment in all cases: NCI-60 cell line screen, 48 h
HS 578T breast = tested on: HS 578T breast
COLO 205 colon = tested on: COLO 205 colon
SK-MEL-5 melanoma = tested on: SK-MEL-5 melanoma
K-562 leukemia = tested on: K-562 leukemia
NCI-H226 lung = tested on: NCI-H226 lung
SF-295 CNS = tested on: SF-295 CNS
SK-MEL-28 melanoma = tested on: SK-MEL-28 melanoma
SNB-19 CNS = tested on: SNB-19 CNS
BT-549 breast = tested on: BT-549 breast
SN12C renal = tested on: SN12C renal
U251 CNS = tested on: U251 CNS
EKVX NSCLC = tested on: EKVX NSCLC
MDA-MB-231 breast = tested on: MDA-MB-231 breast
A549 NSCLC = tested on: A549 NSCLC
M14 melanoma = tested on: M14 melanoma
NCI/ADR-RES ovarian = tested on: NCI/ADR-RES ovarian
HOP-92 NSCLC = tested on: HOP-92 NSCLC
MDA-N = tested on: MDA-N
ACHN renal = tested on: ACHN renal
OVCAR-3 ovarian = tested on: OVCAR-3 ovarian
A498 renal = tested on: A498 renal
DU-145 prostate = tested on: DU-145 prostate
TK-10 renal = tested on: TK-10 renal
T-47D breast = tested on: T-47D breast
SW-620 colon = tested on: SW-620 colon
MDA-MB-435 = tested on: MDA-MB-435
IGROV1 ovarian = tested on: IGROV1 ovarian
SF-268 CNS = tested on: SF-268 CNS
HCT-116 colon = tested on: HCT-116 colon
MOLT-4 leukemia = tested on: MOLT-4 leukemia
OVCAR-4 ovarian = tested on: OVCAR-4 ovarian
PC-3 prostate = tested on: PC-3 prostate
MCF7 breast = tested on: MCF7 breast
NCI-H23 lung = tested on: NCI-H23 lung
HCC-2998 colon = tested on: HCC-2998 colon
KM12 colon = tested on: KM12 colon
SK-OV-3 ovarian = tested on: SK-OV-3 ovarian
NCI-H460 lung = tested on: NCI-H460 lung
UACC-62 melanoma = tested on: UACC-62 melanoma
HT29 colon = tested on: HT29 colon
HL-60(TB) leukemia = tested on: HL-60(TB) leukemia
SNB-75 CNS = tested on: SNB-75 CNS
RPMI-8226 leukemia = tested on: RPMI-8226 leukemia
RXF 393 renal = tested on: RXF 393 renal
CAKI-1 renal = tested on: CAKI-1 renal
HOP-62 NSCLC = tested on: HOP-62 NSCLC
HCT-15 colon = tested on: HCT-15 colon
UO-31 renal = tested on: UO-31 renal
UACC-257 melanoma = tested on: UACC-257 melanoma
MALME-3M melanoma = tested on: MALME-3M melanoma
OVCAR-8 ovarian = tested on: OVCAR-8 ovarian
OVCAR-5 ovarian = tested on: OVCAR-5 ovarian
786-0 renal = tested on: 786-0 renal
SK-MEL-2 melanoma = tested on: SK-MEL-2 melanoma
NCI-H522 lung = tested on: NCI-H522 lung
LOX IMVI melanoma = tested on: LOX IMVI melanoma
CCRF-CEM leukemia = tested on: CCRF-CEM leukemia
SF-539 CNS = tested on: SF-539 CNS

Measured: TGI

CC(C)CCNc1ncnc2[nH]ncc12
not listed: CCRF-CEM leukemia | SF-539 CNS
> 100 µM: all other assays above

CCCCNc1nc2nc[nH]c2c(=O)[nH]1
not listed: SK-MEL-28 melanoma | HL-60(TB) leukemia
> 100 µM: all other assays above
